Experimental data reported in patent EP4722201A1, “3-PHENYLISOXAZOLINE-5-CARBOXAMIDE COMPOUND, AND PREPARATION METHOD THEREFOR, HERBICIDAL COMPOSITION THEREOF AND USE THEREOF” (Jiangsu Flag Chemical Industry Co., Ltd, priority 2023, dated 2024).

Assays:
Assay type in all cases: in vivo
[1] = system: Cyperus iria; test: Indoor herbicide activity determination, post-emergence (stem and leaf spray at 2-4 leaf stage); details: 504 h, determined 21 days later, read-out: Inhibition rate of fresh weight, Cyperus iria; for inhibition at 60 g/ha: 60 g a.i./ha; for inhibition at 30 g/ha: 30 g a.i./ha
In short: (§1)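 Potted weeds in sandy nutrient soil (pH 6.1, 1% organic matter) were grown in a constant-temperature illuminated room to the 2-4 leaf stage, then given a stem-and-leaf spray. Plants went back to the culture room once the spray had dried in shade. At 21 days, fresh weight inhibition % was calculated relative to untreated control plants.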

[2] = system: Digitaria sanguinalis; test: as above; details: 504 h, determined 21 days later, read-out: Inhibition rate of fresh weight, Digitaria sanguinalis; for inhibition at 60 g/ha: 60 g a.i./ha; for inhibition at 30 g/ha: 30 g a.i./ha
In short: as §1

[3] = system: Eclipta prostrata; test: as above; details: 504 h, determined 21 days later, read-out: Inhibition rate of fresh weight, Eclipta prostrata; for inhibition at 60 g/ha: 60 g a.i./ha; for inhibition at 30 g/ha: 30 g a.i./ha
In short: as §1

[4] = system: Alopecurus japonicus; test: Indoor herbicide activity determination, Seed Treatment; pre-emergence (soil spray)
In short: (§2)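 Herbicide was applied to soil before weed emergence, 24 h after sowing, by tower spraying. Plants grew at constant temperature with illumination, and fresh weight compared with untreated pots gave % inhibition after 21 days.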

[5] = system: Alopecurus myosuroides; test: as above
In short: as §2

[6] = system: Eleusine indica; test: as above
In short: as §2

[7] = system: Leptochloa chinensis; test: as above
In short: as §2

[8] = system: Lolium multiflorum; test: as above
In short: as §2

[9] = system: Aegilops tauschii; test: as above; details: read-out: Herbicidal activities (inhibition rate) Aegilops tauschii; for inhibition at 60 g/ha: 60 g a.i./ha
In short: as §2

[10] = system: Cyperus iria; test: as above; details: read-out: Herbicidal activities (inhibition rate) Cyperus iria; for inhibition at 60 g/ha: 60 g a.i./ha
In short: as §2

[11] = system: Digitaria sanguinalis; test: as above; details: 60 g a.i./ha, read-out: Herbicidal activities (inhibition rate) Digitaria sanguinalis
In short: as §2

[12] = system: Eclipta prostrata; test: as above; details: 60 g a.i./ha, read-out: Herbicidal activities (inhibition rate) Eclipta prostrata
In short: as §2

Structure (SMILES)	inhibition at 60 g/ha [1]	inhibition at 60 g/ha [2]	inhibition at 60 g/ha [3]	Herbicidal activities, Alopecurus japonicus (inhibition rate class) ([4]; Dosage 240 g a.i./ha)	Herbicidal activities, Alopecurus myosuroides (inhibition rate class) ([5]; Dosage 240 g a.i./ha)	Herbicidal activities, Eleusine indica (inhibition rate class) ([6]; Dosage 240 g a.i./ha)	Herbicidal activities, Leptochloa chinensis (inhibition rate class) ([7]; Dosage 240 g a.i./ha)	Herbicidal activities, Lolium multiflorum (inhibition rate class) ([8]; Dosage 240 g a.i./ha)	inhibition at 30 g/ha [1]	inhibition at 30 g/ha [2]	inhibition at 30 g/ha [3]	inhibition at 60 g/ha [9]	inhibition at 60 g/ha [10]	inhibition at 60 g/ha [11]	inhibition at 60 g/ha [12]	also measured
O=C(N[C@H]1C[C@@H](C(=O)O)C1)C1(C(F)(F)F)CC(c2cccc(F)c2)=NO1 (relative stereo) [I-268]	80 to 100%	80 to 100%	40 to 60%	A (A indicates that the inhibition rate was greater than or equal to 80% to 100%)	A (A indicates that the inhibition rate was greater than or equal to 80% to 100%)	A (A indicates that the inhibition rate was greater than or equal to 80% to 100%)	A (A indicates that the inhibition rate was greater than or equal to 80% to 100%)	A (A indicates that the inhibition rate was greater than or equal to 80% to 100%)	–	–	–	–	–	–	–	–
COC(=O)[C@H]1C[C@@H](NC(=O)C2(C(F)(F)F)CC(c3cccc(F)c3)=NO2)C1 (relative stereo) [I-270]	80 to 100%	80 to 100%	40 to 60%	A (A indicates that the inhibition rate was greater than or equal to 80% to 100%)	A (A indicates that the inhibition rate was greater than or equal to 80% to 100%)	A (A indicates that the inhibition rate was greater than or equal to 80% to 100%)	A (A indicates that the inhibition rate was greater than or equal to 80% to 100%)	A (A indicates that the inhibition rate was greater than or equal to 80% to 100%)	–	–	–	–	–	–	–	–
COC(=O)[C@H]1C[C@@H](NC(=O)C2(C(C)(F)F)CC(c3cc(F)cc(F)c3)=NO2)C1 (relative stereo) [I-347]	80 to 100%	60 to 80%	40 to 60%	A (A indicates that the inhibition rate was greater than or equal to 80% to 100%)	A (A indicates that the inhibition rate was greater than or equal to 80% to 100%)	A (A indicates that the inhibition rate was greater than or equal to 80% to 100%)	A (A indicates that the inhibition rate was greater than or equal to 80% to 100%)	A (A indicates that the inhibition rate was greater than or equal to 80% to 100%)	–	–	–	–	–	–	–	–
C=C(F)C1(C(=O)N[C@H]2C[C@@H](C(=O)OC)C2)CC(c2cc(F)cc(F)c2)=NO1 (relative stereo) [I-356]	80 to 100%	60 to 80%	40 to 60%	A (A indicates that the inhibition rate was greater than or equal to 80% to 100%)	A (A indicates that the inhibition rate was greater than or equal to 80% to 100%)	A (A indicates that the inhibition rate was greater than or equal to 80% to 100%)	A (A indicates that the inhibition rate was greater than or equal to 80% to 100%)	A (A indicates that the inhibition rate was greater than or equal to 80% to 100%)	–	–	–	–	–	–	–	–
COC(=O)[C@@H]1CC[C@H](NC(=O)[C@@]2(C(F)(F)F)CC(c3cc(F)cc(F)c3)=NO2)C1 [CK3, reference compound]	–	–	–	–	–	–	–	–	40 to 60%	40 to 60%	< 20%	40 to 60%	40 to 60%	60 to 80%	60 to 80%	–
COC(=O)[C@H]1CC[C@@H](NC(=O)[C@@]2(C(F)(F)F)CC(c3cc(F)cc(F)c3)=NO2)C1 [CK4, reference compound]	–	–	–	–	–	–	–	–	20 to 40%	20 to 40%	< 20%	< 20%	40 to 60%	< 20%	< 20%	–
O=C(O)[C@@H]1CC[C@H](NC(=O)[C@@]2(C(F)(F)F)CC(c3cc(F)cc(F)c3)=NO2)C1 [CK5, reference compound]	–	–	–	–	–	–	–	–	40 to 60%	40 to 60%	< 20%	20 to 40%	60 to 80%	60 to 80%	40 to 60%	–
O=C(O)[C@H]1CC[C@@H](NC(=O)[C@@]2(C(F)(F)F)CC(c3cc(F)cc(F)c3)=NO2)C1 [CK6, reference compound]	–	–	–	–	–	–	–	–	20 to 40%	20 to 40%	< 20%	< 20%	40 to 60%	< 20%	< 20%	–
C=CC1(C(=O)N[C@H]2C[C@@H](C(=O)O)C2)CC(c2cc(F)cc(F)c2)=NO1 (stereo partly shown) [I-1]	80 to 100%	80 to 100%	60 to 80%	A (A indicates that the inhibition rate was greater than or equal to 80% to 100%)	A (A indicates that the inhibition rate was greater than or equal to 80% to 100%)	A (A indicates that the inhibition rate was greater than or equal to 80% to 100%)	A (A indicates that the inhibition rate was greater than or equal to 80% to 100%)	A (A indicates that the inhibition rate was greater than or equal to 80% to 100%)	–	–	–	–	–	–	–	inhibition at 120 g/ha ([9]; 120 g a.i./ha): 80 to 100%; inhibition at 120 g/ha ([10]; 120 g a.i./ha): 80 to 100%
C=C[C@]1(C(=O)N[C@H]2C[C@@H](C(=O)OC)C2)CC(c2cc(F)cc(F)c2)=NO1 [I-4]	–	–	–	–	–	–	–	–	80 to 100%	80 to 100%	60 to 80%	–	80 to 100%	80 to 100%	80 to 100%	Herbicidal activities, Alopecurus japonicus (inhibition rate class) ([4]; Dosage 120 g a.i./ha): A (A indicates that the inhibition rate was greater than or equal to 80% to 100%); Herbicidal activities, Alopecurus myosuroides (inhibition rate class) ([5]; Dosage 120 g a.i./ha): A (A indicates that the inhibition rate was greater than or equal to 80% to 100%); Herbicidal activities, Eleusine indica (inhibition rate class) ([6]; Dosage 120 g a.i./ha): A (A indicates that the inhibition rate was greater than or equal to 80% to 100%); Herbicidal activities, Leptochloa chinensis (inhibition rate class) ([7]; Dosage 120 g a.i./ha): A (A indicates that the inhibition rate was greater than or equal to 80% to 100%); Herbicidal activities, Lolium multiflorum (inhibition rate class) ([8]; Dosage 120 g a.i./ha): A (A indicates that the inhibition rate was greater than or equal to 80% to 100%)
C=C[C@]1(C(=O)N[C@H]2C[C@@H](C(=O)OCC)C2)CC(c2cc(F)cc(F)c2)=NO1 [I-5]	–	–	–	–	–	–	–	–	80 to 100%	80 to 100%	40 to 60%	80 to 100%	60 to 80%	80 to 100%	–	Herbicidal activities, Alopecurus japonicus (inhibition rate class) ([4]; Dosage 120 g a.i./ha): A (A indicates that the inhibition rate was greater than or equal to 80% to 100%); Herbicidal activities, Alopecurus myosuroides (inhibition rate class) ([5]; Dosage 120 g a.i./ha): A (A indicates that the inhibition rate was greater than or equal to 80% to 100%); Herbicidal activities, Eleusine indica (inhibition rate class) ([6]; Dosage 120 g a.i./ha): A (A indicates that the inhibition rate was greater than or equal to 80% to 100%); Herbicidal activities, Leptochloa chinensis (inhibition rate class) ([7]; Dosage 120 g a.i./ha): A (A indicates that the inhibition rate was greater than or equal to 80% to 100%); Herbicidal activities, Lolium multiflorum (inhibition rate class) ([8]; Dosage 120 g a.i./ha): A (A indicates that the inhibition rate was greater than or equal to 80% to 100%)
C=C[C@]1(C(=O)N[C@H]2C=C[C@@H](C(=O)OCC(C)C)C2)CC(c2cc(F)cc(C(F)(F)F)c2)=NO1 [I-438]	–	–	–	–	–	–	–	–	60 to 80%	60 to 80%	60 to 80%	–	80 to 100%	–	80 to 100%	Herbicidal activities, Eleusine indica (inhibition rate class) ([6]; Dosage 120 g a.i./ha): A (A indicates that the inhibition rate was greater than or equal to 80% to 100%); Herbicidal activities, Leptochloa chinensis (inhibition rate class) ([7]; Dosage 120 g a.i./ha): A (A indicates that the inhibition rate was greater than or equal to 80% to 100%)
C=C[C@]1(C(=O)N[C@H]2CO[C@@H](C(=O)O)C2)CC(c2cc(F)cc(F)c2)=NO1 [icafolin, reference compound]	–	–	–	–	–	–	–	–	40 to 60%	40 to 60%	< 20%	40 to 60%	20 to 40%	20 to 40%	< 20%	–
